Here are results for four compounds from patent US8697865B2, “Cyclic amide derivative, and its production and use” (Takeda Pharmaceutical Company Limited, priority 2004, dated 2014).

Data set [1] has as its target human FXa (Homo sapiens, UniProt P00742). The data set can be described thus: Inhibitory action of human activated blood coagulation factor X (FXa). The class given is biochemical. The following applies: chromogenic substrate S-2765, 37° C., absorbance at 405 nm, read-out: IC50 (concentration inhibiting FXa activity by 50%).

Where a name gives a salt, the structure may show the parent alone.

human FXa, sequence (P00742 235-488 limits assumed): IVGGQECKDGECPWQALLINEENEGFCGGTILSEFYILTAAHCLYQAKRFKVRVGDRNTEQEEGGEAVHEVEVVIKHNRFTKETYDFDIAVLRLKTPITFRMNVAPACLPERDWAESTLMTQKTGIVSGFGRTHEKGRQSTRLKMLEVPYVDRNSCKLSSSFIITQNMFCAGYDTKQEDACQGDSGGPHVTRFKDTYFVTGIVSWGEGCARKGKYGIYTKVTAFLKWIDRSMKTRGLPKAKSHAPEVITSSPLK
human FXa, sequence (P00742 41-179 partner limits assumed): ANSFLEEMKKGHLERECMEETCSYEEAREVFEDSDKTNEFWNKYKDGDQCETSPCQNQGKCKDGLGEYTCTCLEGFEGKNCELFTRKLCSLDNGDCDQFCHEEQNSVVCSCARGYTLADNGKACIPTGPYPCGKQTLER

In turn, `O=C([C@H](O)CS(=O)(=O)c1ccc2cc(Cl)ccc2c1)N1CCN(N2CCCCC2=O)CC1` [Example 8, 1-(4-{(2S)-3-[(6-Chloronaphthalen-2-yl)sulfonyl]-2-hydroxypropanoyl}piperazin-1-yl)piperidin-2-one] registered a melting point of 198 °C. For the same compound, the IC50 in data set [1] was found to be 6.6 nM.

With `O=C([C@H](O)CS(=O)(=O)c1ccc2cc(Cl)ccc2c1)N1CCN(N2CCCNC2=O)CC1` [Example 25, 1-(4-{(2S)-3-[(6-Chloronaphthalen-2-yl)sulfonyl]-2-hydroxypropanoyl}piperazin-1-yl)tetrahydropyrimidin-2(1H)-one], in data set [1], the IC50 was 4.2 nM. As to `O=C(CCS(=O)(=O)c1ccc2cc(Cl)ccc2c1)N1CCN(N2CCCNC2=O)CC1` [Example 33, 1-(1-{3-[(6-Chloronaphthalen-2-yl)sulfonyl]propanoyl}piperazin-4-yl)tetrahydropyrimidin-2(1H)-one], the IC50 in data set [1] amounted to 9.9 nM. As to `N=C1CCCCN1C1CCN(C(=O)[C@H](O)CS(=O)(=O)c2ccc3cc(Cl)ccc3c2)CC1` [Example 43, (2S)-3-[(6-Chloronaphthalen-2-yl)sulfonyl]-1-(2-imino-1,4′-bipiperidin-1′-yl)-1-oxopropan-2-ol trifluoroacetate], in data set [1], the IC50 came out at 4.8 nM.
